This note sets out measurements from publication PMC10840383, “Clinical features, functional consequences, and rescue pharmacology of missense GRID1 and GRID2 human variants” (Human Molecular Genetics, 2023).

Structures are written as SMILES. Where a chain is given by its changes, count along the chain named.

Common to all, as to assay type: cell-based
For test [1], the system named is constitutively active GluD1 and GluD2 receptor variants. The experiment in a line: Inhibition of constitutive currents of GluD variants by channel blockers, Xenopus oocytes. On the procedure:
Xenopus laevis oocytes were prepared from ovaries purchased from Xenopus 1 (Dexter, MI) as previously described, [68] and incubated at 16°C in culture Barth’s solution (in mM) 88 NaCl, 2.4 NaHCO3, 1 KCl, 0.33 Ca(NO3)2, 0.41 CaCl2, 0.82 MgSO4, 10 HEPES, pH 7.4 with NaOH, supplemented with 1 U/ml penicillin and 1 μg/ml streptomycin. Oocytes were injected with approximately 5–40 ng RNA per oocyte and then incubated at 16–19°C for 1–3 days in culture Barth’s solution. The levels of GluD2-A654D and GluD2-A654T cRNA were reduced to 1.5 ng and 2.5 ng, respectively, due to oocyte toxicity. Two-electrode voltage clamp (TEVC) recordings were performed as previously described. Unless otherwise specified, extracellular solution contained (in mM) 90 NaCl, 3 KCl, 0.5 BaCl2, 0.01 EDTA, 10 HEPES, and was brought to pH 7.4 with NaOH. The oocytes were placed in a dual track recording chamber and gravity perfused with solution exchange controlled via a computer-driven 8-valve positioner (Digital MVP Valve). […] Recording electrodes were filled with 0.3 M KCl, and currents were recorded with membrane voltage held at −40 mV. To establish constitutive activity of recombinant receptors when compared to wild type receptors, we used the oocyte recording solution described above, but with 90 mM N-methyl-D-glucamine (NMDG) chloride replacing 90 mM NaCl. […] In addition to establishing constitutive activity, 90 mM NMDG was used in recording protocols with drug treatment to obtain the percent maximum theoretical inhibition of a compound, or to determine the relative degree of drug potentiation. For Ca^2+ concentration-response curves, choline chloride was used to maintain equimolar concentrations of Cl^− ions in the extracellular solution across the changing concentrations of calcium chloride. All compounds used in this study for concentration-response oocyte recordings were dissolved in deionized water as 50–100 mM stock solutions. In some rescue pharmacology experiments, we substituted 1 mM CaCl2 for 0.5 mM BaCl2 to evaluate Ca^2+-dependent control of receptor responses.

Test [2] has as its target T1, GluD1-R341Q (Homo sapiens, UniProt Q9ULK0, R341Q).
T1 construct: expressed in transfected cells; host or cells: Xenopus laevis oocytes injected with cRNA
T1 sequence (Q9ULK0 21-1009 R341Q): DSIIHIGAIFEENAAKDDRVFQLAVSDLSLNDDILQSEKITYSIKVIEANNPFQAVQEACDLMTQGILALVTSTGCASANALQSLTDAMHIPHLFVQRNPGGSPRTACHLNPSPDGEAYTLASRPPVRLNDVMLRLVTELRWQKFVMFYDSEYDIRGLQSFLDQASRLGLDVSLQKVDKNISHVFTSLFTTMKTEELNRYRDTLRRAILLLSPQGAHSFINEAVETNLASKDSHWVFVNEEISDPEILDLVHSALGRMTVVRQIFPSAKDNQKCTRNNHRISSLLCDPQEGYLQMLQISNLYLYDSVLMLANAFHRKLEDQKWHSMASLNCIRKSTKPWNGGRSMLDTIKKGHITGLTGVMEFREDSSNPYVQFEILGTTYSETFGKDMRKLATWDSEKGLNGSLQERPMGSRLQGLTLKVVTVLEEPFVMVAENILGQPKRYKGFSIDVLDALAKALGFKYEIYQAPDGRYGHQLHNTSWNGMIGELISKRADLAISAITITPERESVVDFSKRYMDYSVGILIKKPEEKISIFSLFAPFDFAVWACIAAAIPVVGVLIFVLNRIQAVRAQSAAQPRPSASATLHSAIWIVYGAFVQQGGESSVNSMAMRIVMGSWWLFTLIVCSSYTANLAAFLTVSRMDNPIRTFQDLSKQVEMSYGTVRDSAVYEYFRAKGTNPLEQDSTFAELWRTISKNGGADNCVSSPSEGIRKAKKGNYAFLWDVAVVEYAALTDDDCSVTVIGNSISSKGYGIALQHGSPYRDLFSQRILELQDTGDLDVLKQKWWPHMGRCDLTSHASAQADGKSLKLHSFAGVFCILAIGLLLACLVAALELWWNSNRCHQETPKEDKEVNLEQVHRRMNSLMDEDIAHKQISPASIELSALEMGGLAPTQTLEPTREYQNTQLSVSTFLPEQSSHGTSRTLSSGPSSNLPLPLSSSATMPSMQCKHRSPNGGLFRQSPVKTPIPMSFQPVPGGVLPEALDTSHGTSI
The experiment in a line: TEVC of constitutive current, Xenopus oocytes expressing GluD1-R341Q.

In test [3] the target is T2, GluD1-N651S (Homo sapiens, UniProt Q9ULK0, N651S).
T2 construct: expressed in transfected cells; host or cells: Xenopus laevis oocytes injected with cRNA
T2 sequence (Q9ULK0 21-1009 N651S): T1 sequence (Q9ULK0 21-1009 R341Q) with Q321R, N631S
As to the kind of experiment: TEVC of constitutive current, Xenopus oocytes expressing GluD1-N651S. Particulars: positive = increase, negative = decrease of activity.

Take `CC12CC3CC(C)(C1)CC(N)(C3)C2` [Memantine, memantine]: the “Inhibition of constitutive currents, in words” value in test [1] is “more effectively than ketamine”.

With `N[C@H](CO)C(=O)O` [D-serine], the “Effect on current, in words” value in test [2] is reported as “insensitive”. Moreover, the “D-Serine effect (Baseline −10 mM D-Serine)” value in test [2] (10 mM D-serine, positive = increase, negative = decrease of activity) is on record as 7.2 ± 1.8 (6) nA; in test [3] (10 mM D-serine), 7.6 ± 1.6 (10) nA.

`N=C(N)c1ccc(OCCCCCOc2ccc(C(=N)N)cc2)cc1` [Pentamidine, pentamidine]: in test [1], the “Inhibition of constitutive currents, in words” value is given as “inhibits”. Further, the “Pentamidine effect (Baseline −100 μM Pentamidine)” value in test [2] (100 μM pentamidine, positive = increase, negative = decrease of activity) is listed as 64 ± 15 (6) nA; in test [3] (100 μM pentamidine), 38 ± 8.3 (10) nA.
